Two compounds from PMC10778976, “BAY-3827 and SBI-0206965: Potent AMPK Inhibitors That Paradoxically Increase Thr172 Phosphorylation” (International Journal of Molecular Sciences, 2023) can be followed below.

The test system of assay [1] is Raptor (Ser792) phosphorylation in U2OS cells. Kind of assay: Raptor phosphorylation in U2OS cells (Western blot). Type of assay: cell-based, human. The conditions noted are these: 30 min inhibitor then 30 min MK-8722 (300 nM), read-out: IC50, inhibition of MK-8722-stimulated Raptor phosphorylation. As for the experimental part: T-Rex U2OS cells carrying a Flp Recombinase Target (FRT) site were generated as described previously and grown in Dulbecco’s Modified Eagle’s Medium (DMEM) supplemented with 10% (v/v) FBS and 1% (v/v) penicillin/streptomycin.
Cells were lysed rapidly in situ on culture plates using ice-cold lysis medium containing phosphatase inhibitors, as described previously.
SDS-PAGE was performed using precast NuPAGE Tris-acetate 3–8% gradient polyacrylamide gels in Tris-acetate running buffer when analyzing ACC, GBF1, or Raptor, or NuPAGE Bis-Tris 4–12% gradient polyacrylamide gels in the MOPS buffer system (ThermoFisher Scientific, Waltham, MA, USA) for other proteins (unless stated otherwise). Proteins were transferred to nitrocellulose membranes using the iBlot 2 system (ThermoFisher Scientific). Membranes were enhanced if necessary using SuperSignal Western Blot Enhancer (ThermoFisher Scientific), then blocked for 1 h in Li-Cor Odyssey blocking buffer. The membranes were probed with the appropriate primary antibody ([…]) overnight at 4 °C. Detection was performed using secondary antibody or streptavidin probe (for total ACC) coupled to IR 680 or IR 800 dye, and the membranes were scanned using the LICOR Odyssey IR imager. Protein concentrations were determined by Coomassie Blue binding with bovine serum albumin as a standard. The cellular levels of AMP and ATP were determined via direct perchloric acid extraction from cells, with LC:MS used to estimate the levels of each nucleotide.
Background: In western blotting, separated proteins are transferred to a membrane and probed.

The test system of assay [2] is endogenous AMPK from HEK-293 cells. Kind of assay: Protection of immunoprecipitated AMPK against inactivation by PP2Cα (PPM1A). Type of assay: biochemical, human. As to conditions: immunoprecipitated AMPK, 10 min 30 °C; read-out: half-maximal effect on protection against inactivation by PPM1A. As for the experimental part:
AMPK was immunoprecipitated from HEK-293 cell lysate (2.5 mg of lysate protein) using a mixture of anti-α1 and -α2 antibodies. After extensive washing as in Section 4.5, aliquots equivalent to 80 µg of lysate protein were incubated in a shaking incubator at 30 °C for 10 min in Hepes buffer (50 mM Na Hepes, pH 7.4, 150 mM NaCl, 1 mM dithiothreitol, 0.02% (w/v) Brij-35) with 50 mM MgCl2 and sufficient PPM1A to yield about 80% inactivation, in the presence or absence of 200 µM AMP or the indicated concentration of BAY-3827 or SBI-0206965 (total volume 50 µL). The reaction was terminated by adding 1 mL of IP buffer (50 mM Tris/HCl, pH 7.4 at room temperature, 150 mM NaCl, 1 mM EDTA, 1 mM EGTA, 5 mM Na pyrophosphate, 50 mM NaF, 1 mM dithiothreitol, 0.1% (v/v) Triton X-100) and, after additional washing in the same buffer and a final wash into Hepes buffer, AMPK activity was determined using kinase assays as above.

Assay [3] has as its target T1, LKB1 (human LKB1:STRADα:MO25α complex) (Homo sapiens, UniProt Q15831).
T1 construct: made in house
T1 sequence (Q15831 1-433): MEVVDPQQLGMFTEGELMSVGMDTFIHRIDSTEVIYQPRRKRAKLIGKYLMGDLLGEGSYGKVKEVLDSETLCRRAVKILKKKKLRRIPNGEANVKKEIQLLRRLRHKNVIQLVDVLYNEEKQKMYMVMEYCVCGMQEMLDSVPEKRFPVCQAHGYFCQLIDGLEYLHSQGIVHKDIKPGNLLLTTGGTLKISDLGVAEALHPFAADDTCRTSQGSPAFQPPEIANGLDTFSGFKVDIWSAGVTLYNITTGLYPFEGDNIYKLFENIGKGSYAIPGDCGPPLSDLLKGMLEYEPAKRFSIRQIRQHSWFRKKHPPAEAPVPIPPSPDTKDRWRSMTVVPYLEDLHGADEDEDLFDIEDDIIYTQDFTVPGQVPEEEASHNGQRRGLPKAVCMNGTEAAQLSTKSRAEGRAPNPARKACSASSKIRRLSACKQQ
T1 sequence (Q7RTN6 1-431 partner): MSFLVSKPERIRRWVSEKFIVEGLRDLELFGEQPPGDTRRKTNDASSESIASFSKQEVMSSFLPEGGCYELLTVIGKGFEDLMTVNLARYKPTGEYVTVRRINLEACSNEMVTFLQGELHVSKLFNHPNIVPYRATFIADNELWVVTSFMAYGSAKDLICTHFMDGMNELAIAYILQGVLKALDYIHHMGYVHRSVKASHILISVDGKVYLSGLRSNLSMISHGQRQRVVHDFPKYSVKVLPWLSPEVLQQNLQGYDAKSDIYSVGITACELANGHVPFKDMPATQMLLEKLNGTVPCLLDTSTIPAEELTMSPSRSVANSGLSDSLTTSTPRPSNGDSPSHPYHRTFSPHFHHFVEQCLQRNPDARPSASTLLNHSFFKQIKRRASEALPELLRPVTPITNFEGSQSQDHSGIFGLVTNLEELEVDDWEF
T1 sequence (Q9Y376 1-341 partner): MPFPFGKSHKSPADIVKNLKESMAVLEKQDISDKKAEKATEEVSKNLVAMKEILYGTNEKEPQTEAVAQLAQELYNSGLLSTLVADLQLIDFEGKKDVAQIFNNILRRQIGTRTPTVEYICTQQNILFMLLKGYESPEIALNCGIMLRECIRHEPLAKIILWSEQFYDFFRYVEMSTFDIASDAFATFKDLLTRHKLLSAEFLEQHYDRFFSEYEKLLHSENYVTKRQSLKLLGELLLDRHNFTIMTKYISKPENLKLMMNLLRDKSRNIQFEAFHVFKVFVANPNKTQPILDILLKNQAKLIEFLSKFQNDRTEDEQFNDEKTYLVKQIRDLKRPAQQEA
Description: LKB1 activity using LKBtide peptide. Type of assay: biochemical. The conditions noted are these: LKBtide substrate. As for the experimental part:
To directly determine LKB1 activity, kinase assays were performed in the presence or absence of the indicated concentration of BAY-3827 or SBI-0206965 as for AMPK, except that LKBtide was used as a peptide substrate. PPM1A activity was determined using p-nitrophenyl phosphate (pNPP) as a substrate. PPM1A (5 µg) was incubated with 50 mM pNPP and 50 mM MgCl2 in Hepes buffer in the presence of a vehicle or the indicated concentration of BAY-3827 or SBI-0206965 for 10 min at 30 °C. The reaction was quenched by the addition of 1 mL of 0.5 M EDTA and the amount of product, p-nitrophenol, determined by measuring absorbance at 405 nm.

Read-outs that look alike come from different tables or passages of the source.

Consider `CNC(=O)c1ccccc1Oc1nc(Nc2cc(OC)c(OC)c(OC)c2)ncc1Br` [SBI-0206965], for which the IC50 in assay [1] amounted to 9200 nM; in assay [3] (read-out: IC50, inhibition of LKB1 activity) it was 6100 nM. In addition, in assay [2], the EC50 turned out to be 290 nM.

On to `CCc1ccccc1C(=O)Nc1n[nH]c2c(C)c(F)c(C3C(C#N)=C(C)N(C)C(C)=C3C#N)cc12` [BAY-3827], for which, in assay [1] (Homo sapiens, 0.5 h), the IC50 was found to be 113 nM. Besides, the EC50 in assay [2] is 7 nM. Also, the “effect on LKB1 activity” value in assay [3] (all concentrations used) was “no inhibition”.

Usually IC50 stands for the concentration that gives 50% inhibition.
